Measured values: patent publication US7336989B2, “System and method for quantitative or qualitative measurement of exogenous substances in tissue and other materials using laser-induced fluorescence spectroscopy” (priority 2002, dated 2008)
Several values for one entry are separate records, joined by “and”; a condition that tells them apart may be missing. Equal entries are not always repeated.

Assay: Penetration depth of topically applied antibiotics into corneal tissue, by excimer laser ablation and laser-induced fluorescence spectroscopy with PLS model
Assay type: in vitro ADME
Details: for Antibiotic Penetration Depth (Mean): rinsed, mean of cases (SD in text)
Description: The second set of experiments was performed on fresh rabbit corneas. All experiments were performed in compliance with the Association for Research in Vision and Ophthalmology (ARVO) Statement on the Use of Animals in Research. Approval was obtained from the University of California, Irvine, Institutional Care and Use Committee (IACUC) and the IACUC guidelines regarding animal experimentation were followed. New Zealand White rabbit heads were obtained from an abattoir and kept at 4° C. until eyes were enucleated within 7-hours of death to maximize preservation of the corneal epithelium. The globes were stored in a moist chamber at 4° C. for approximately 4 hours until time of use.
The main component, mounted on or above an optical table 21, is the Nidek EC-5000 laser system 22 (Model EC-5000, Nidek Technologies, Inc., Japan) operating at 193 nm. The average laser energy is about 16.4 mJ/pulse measured over a period of 10-s while pulsing at 4 Hz. The eye-fixation LED and the aiming He—Ne laser within the laser system 22 are disabled to avoid their interference with the measured corneal autofluorescence.
During the experiments, the laser 22 is operated to emit a collimated laser beam 23 in the direction of a cornea 24. The laser 22 is operated in its manual mode to pulse the beam 23 at 4 Hz and generate a rectangular spot size of about 2×4.5-mm. The BNC cable connecting the control circuitry of the EC-5000 to the OEM […] excimer laser (Lambda Physik, Fort Lauderdale, Fla.) is tapped using a BNC T-adapter. […]
Each pulse of radiation emitted from the laser 22 ablates a thin layer of the cornea 24. The laser-induced fluorescence (LIF) 32 produced by the ablated cornea 24 is reflected by a 2″ off-axis parabolic mirror 34 (Al, SiO-protected Model A8037-331, Janos Technology Inc., Townshend, Vt.) mounted on a mirror holder 36 that is, in turn, mounted on an XYZ translator 38. […] With each trigger pulse, the spectrograph 26 measures and auto-saves the fluorescence spectrum generated by the corresponding laser pulse.
The cornea 24 was placed epithelium-up (with the exception of the cornea in Example 4) on a circular aluminum tray 42. […] The laser 22 was set to ablate the cornea at 4-Hz for a period of about 7-minutes and the fluorescence spectrum generated by each pulse was measured and saved. […]
In each set of experiments, the measured fluorescence spectra are corrected for dark current and background light, and each spectrum is smoothed using a 5-point moving average window. The series of spectra measured from a given cornea are normalized by the peak value of the first spectrum in the series (i.e. the spectrum of the corneal surface). […]

For `O=C(O)c1cn(C2CC2)c2cc(N3CCNCC3)c(F)cc2c1=O` [Ciprofloxacin, ciprofloxacin], the “Antibiotic Penetration Depth (individual cases)” value (enucleated rabbit globes, topical 4 drops for 10 min, then 3 drops for 5 min, rinsed with lactated Ringer's, single cornea per case) was 0.6 μm and 1.5 μm and 0.9 μm, the “Antibiotic Penetration Depth (Mean)” value (enucleated rabbit globes, topical 4 drops for 10 min, then 3 drops for 5 min) was 1.0 μm and the “Antibiotic Penetration Depth (Mean)” value (enucleated rabbit globes, topical 4 drops for 10 min, then 3 drops for 5 min, listed as ciprofloxacin) was 1.0±0.5 μm.
For `COc1c(N2CCNC(C)C2)c(F)cc2c(=O)c(C(=O)O)cn(C3CC3)c12` (stereo not shown) [Gatifloxacin, gatifloxacin], the “Penetration of the corneal epithelium (in words)” value was “penetrate the epithelium significantly more than ciprofloxacin”.
